Reference: paper PMC5431342, “Discovery of an enzyme and substrate selective inhibitor of ADAM10 using an exosite-binding glycosylated substrate” (Scientific Reports, 2016)
Like-named read-outs stand apart in the source and are kept apart here.

Assays:
HEK293 cells = experiment: Cell toxicity study (CellTiter-Glo), HEK293; format: cell-based
Procedure: Test compounds were solubilized in 100% DMSO and added to polypropylene 384 well plates (Greiner cat# 781280). 1,250 of BT474 or HEK293 cells were plated in 384-well plates in 8 µL of serum-free media (HybriCare for BT474, EMEM for HEK293). Test compounds and pharmacological assay control (lapatinib) were prepared as 10-point, 1:3 serial dilutions starting at 10 mM, then added to the cells using the pin tool mounted on Biomek NX^P. Plates were incubated for 72 h at 37 °C, 5% CO2 and 95% RH. After incubation, 8 µL of CellTiter-Glo® (Promega cat# G7570) was added to each well, and incubated for 15 min at room temperature. Luminescence was recorded using a Biotek Synergy H4 multimode microplate reader. Viability was expressed as a percentage relative to wells containing media only (0%) and wells containing cells treated with DMSO only (100%). Three parameters were calculated on a per-plate basis: (a) the signal-to-background ratio (S/B); (b) the coefficient for variation [CV; CV = (standard deviation/mean) × 100)] for all compound test wells; and (c) the Z′-factor. IC50 values were calculated by fitting normalized data to sigmoidal log vs. response equation utilizing non-linear regression analysis from GraphPad Prizm 6.

ADAM10 [1] = target: T1, ADAM10 (Homo sapiens, UniProt O14672); experiment: ADAM10 non-glycosylated substrate assay; format: biochemical; conditions: non-glycosylated substrate
T1 construct: purchased R&D Systems 936-AD
T1 sequence (O14672 214-748): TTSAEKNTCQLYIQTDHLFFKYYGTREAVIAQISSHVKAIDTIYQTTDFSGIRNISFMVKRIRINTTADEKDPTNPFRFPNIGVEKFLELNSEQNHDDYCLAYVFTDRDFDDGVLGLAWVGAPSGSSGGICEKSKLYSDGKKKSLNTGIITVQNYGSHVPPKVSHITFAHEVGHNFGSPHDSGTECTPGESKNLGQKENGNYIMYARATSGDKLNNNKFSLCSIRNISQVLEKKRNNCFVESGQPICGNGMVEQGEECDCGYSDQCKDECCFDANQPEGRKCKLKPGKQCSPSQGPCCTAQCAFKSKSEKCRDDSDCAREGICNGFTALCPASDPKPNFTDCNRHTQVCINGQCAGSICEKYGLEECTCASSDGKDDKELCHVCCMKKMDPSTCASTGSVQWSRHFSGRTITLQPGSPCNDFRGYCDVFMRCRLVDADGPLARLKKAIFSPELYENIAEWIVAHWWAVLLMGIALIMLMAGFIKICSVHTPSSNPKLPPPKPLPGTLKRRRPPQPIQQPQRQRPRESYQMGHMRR
From the text: Additionally, we synthesized a non-glycosylated version, E(Edans)-[…]-K(Dabcyl), to be used as a control in the follow-up studies.

ADAM10 [2] = target: T1, ADAM10; experiment: ADAM10 kinetic assays, determination of inhibition type and mechanism; format: biochemical
Procedure: Since true affinity of time-dependent inhibitors cannot be determined by steady state approaches, in order to determine the true inhibition modality and true affinity of CID 3117694 we performed kinetic assays with the range of glycosylated substrate (0.5–5 [S]/KM) and inhibitor (1.56–50 µM) concentrations in quadruplicate. Reactions were allowed to run for 6 h. Progress curve data were fitted using a non-linear regression model for time-dependent inhibition (Equation 1) using MatLab software.
First, we performed the ADAM10 reaction with glycosylated substrate in the presence of […] CID 3117694 in kinetic format without pre-incubation. Obtained k obs values were plotted versus [I] to determine whether the inhibitor binding conforms to a 1- or 2-step mechanism (Fig. 4A). […] Future studies will address the exact location of this exosite.
In order to determine true inhibition modality and affinity of CID 3117694, kinetic assays were performed with the range of substrate (0.5–5 [S]/KM) and inhibitor concentrations (1.56–50 µM) in quadruplicate. Reactions were allowed to run for 6 h. Progress curve data were fitted using a non-linear regression model for time-dependent inhibition (Equation 1) using MatLab software. [P]=vst+vi−vs/kobs⁎[1−exp(−kobst)]
Obtained k obs values were plotted versus [I] to determine whether the inhibitor binding conforms to a 1- or 2-step mechanism.
To obtain true potency, Equation 3 was solved for K i and K i ′. Resulting ratio of Ki′/Ki termed α (alpha) was used to determine mechanism of inhibition. In order to confirm the true binding modality, k obs was plotted versus [S]/KM. app^Ki=[S]+KM/KM/Ki+[S]/Ki′

[3] = test system: CCL2-induced migration of peripheral blood mononuclear cells (PBMC); experiment: PBMC migration assay; format: cell-based; conditions: statistical significance not reached
Procedure: (§1) For PBMC or primary human neutrophil chemotaxis assays, transwells with 8 or 5 µm pores were filled with 100 µL of cell suspension (1 × 10^6 cells in 100 µL DMEM + 0.2% BSA). Lower wells were filled with stimulus solution (3 nM CCL2 or 10 µg/mL CXCL8 (IL8) in assay buffer (RPMI + 0.2% BSA). After incubation of PBMCs for 2 h or neutrophils for 45 min, migrated cells were quantified in the lower well. For inhibitor studies, cells were pre-incubated in migration medium for 30 min and subsequently subjected to the migration experiment. Migrated neutrophils or PBMCs were quantified by measurement of endogenous glucuronidase activity as described.

[4] = test system: IL-8-induced migration of primary human neutrophils; experiment: Neutrophil migration assay; format: cell-based
Procedure: as §1

ADAM10 [5] = target: T1, ADAM10; experiment: HPLC-based ADAM10 assay using glycosylated substrate; format: biochemical
Procedure: Both assays followed the same general protocol. 30 µL of 3x enzyme solution (30 nM) in assay buffer (10 mM Hepes, 0.001% Brij-35, pH 7.5) were added to solid bottom black 384 plates. Next, 30 µL of 3x test compounds and pharmacological controls were added to corresponding wells. After 30 min incubation at RT, the reactions were started by addition of 30 µL of 3x solution of glycosylated substrate (30 µM). Reactions were incubated at RT for 2 h and then quenched with 10 µL of 500 µM EDTA. Analytical RP-HPLC was performed on a 1260 Infinity Agilent Technologies liquid chromatograph equipped with an Agilent Poroshell 120 column. Eluents were 0.1% TFA in water (A) and 0.1% TFA in acetonitrile (B). The elution gradient was 0–98% B in 15 min with a flow rate of 1.0 mL/min. Detection was at λ = 214, 360, and 460 nm.

- IC50 (ADAM10 [1]): > 100000 nM
- ratio of Ki′/Ki, α (alpha) (ADAM10 [2]): 21.7
- Ki (ADAM10 [2]; apparent potency at initial velocity, hyperbolic two-step model, read-out: appKi): 1360 ± 200 nM
- Ki (ADAM10 [2]; apparent potency at steady-state velocity, read-out: appKi*): 330 ± 20 nM
- Ki (ADAM10 [2]; binding affinity for enzyme-substrate complex, read-out: Ki): 19000 nM
- Ki (ADAM10 [2]; binding affinity for free enzyme, read-out: Ki): 883 nM
- inhibition modality (ADAM10 [2]; kobs versus [S]/KM and α): competitive inhibitor
- IC50 (ADAM10 [5]): 4100 nM
SMILES: COc1cccc(C(=O)NNC(=O)C(=O)Nc2ccc(C)c(Cl)c2)c1 [CID 3117694]
- effect on HEK293 cell viability (HEK293 cells; 100 µM): moderate effect
- effect on viability of HEK293 cells (HEK293 cells; 72 h): did not affect viability
- inhibition of PBMC migration [3]: approximately 50%
- inhibition of neutrophil migration [4]: inhibition of migration to random migration levels
